Assay results from the supplement of paper PMC10307832.

Legend:
Experiment in all cases: relative viability (nuclei count vs DMSO), 5 days (fraction); higher = more cells survive
Linifanib + Trametinib = compound: Cc1ccc(F)c(NC(=O)Nc2ccc(-c3cccc4[nH]nc(N)c34)cc2)c1 [Linifanib] + CC(=O)Nc1cccc(-n2c(=O)n(C3CC3)c(=O)c3c(Nc4ccc(I)cc4F)n(C)c(=O)c(C)c32)c1 [Trametinib] (partner 0.02 µM)
Outline: (§1)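 Relative viability divides the nuclei count in treated wells by that in vehicle wells. Lung cancer cell lines were seeded in 1536-well plates, dosed by pin tool the next day, and fixed and stained after 5 days in one step with final 0.05% Triton X-100, 1% formaldehyde and 1 ug/ml Hoechst. Dosing was a single drug or a fixed anchor-drug dose plus five library-drug doses (not always all listed) in √10 steps, and values are medians of duplicate plates imaged at 4×.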

Linifanib + Bortezomib = compound: Cc1ccc(F)c(NC(=O)Nc2ccc(-c3cccc4[nH]nc(N)c34)cc2)c1 [Linifanib] + CC(C)C[C@H](NC(=O)[C@H](Cc1ccccc1)NC(=O)c1cnccn1)B(O)O [Bortezomib] (partner 0.002 µM)
Outline: as §1

Linifanib + Tozasertib = compound: Cc1ccc(F)c(NC(=O)Nc2ccc(-c3cccc4[nH]nc(N)c34)cc2)c1 [Linifanib] + Cc1cc(Nc2cc(N3CCN(C)CC3)nc(Sc3ccc(NC(=O)C4CC4)cc3)n2)n[nH]1 [Tozasertib] (partner 0.1 µM)
Outline: as §1

Cell Line	relative viability (Linifanib + Trametinib; first compound 0.03162 µM)	relative viability (Linifanib + Trametinib; first compound 0.1 µM)	relative viability (Linifanib + Trametinib; first compound 0.3162 µM)	relative viability (Linifanib + Bortezomib; first compound 0.03162 µM)	relative viability (Linifanib + Bortezomib; first compound 0.1 µM)	relative viability (Linifanib + Bortezomib; first compound 0.3162 µM)	relative viability (Linifanib + Tozasertib; first compound 0.03162 µM)	relative viability (Linifanib + Tozasertib; first compound 0.1 µM)	relative viability (Linifanib + Tozasertib; first compound 0.3162 µM)
NCI-H1437	0.559	0.618	0.45	0.644	0.688	0.491	0.375	0.444	0.389
NCI-H3122	0.273	0.251	0.19	1.01	1	0.989	0.456	0.437	0.371
NCI-H520	0.673	0.803	0.731	0.773	1.07	0.497	0.382	0.456	0.418
NCI-H1734	0.618	0.693	0.648	1.04	1.15	0.93	0.289	0.288	0.238
NCI-H1975	0.298	0.525	0.355	0.504	0.376	0.389	0.681	0.901	0.722
LU99A	0.558	0.582	0.587	1.13	1.16	1.21	0.277	0.306	0.317
NCI-H1793	0.372	0.56	0.434				0.253	0.467	0.372
NCI-H1355	0.407	0.497	0.404	1.23	1.26	1.26	0.504	0.547	0.551
NCI-H2023	0.538	0.675	0.554	1.03	1.28	0.975	0.322	0.398	0.293
NCI-H1792	0.389	0.459	0.439	0.93	0.975	0.937			
LCLC-103H	0.721	0.669	0.64	1.19	1.16	1.15	0.482	0.461	0.423
LOU-NH91	0.775	0.798	0.762	0.47	0.548	0.463	0.713	0.693	0.68
NCI-H838	0.528	0.554	0.521	1.24	1.08	0.968	0.248	0.301	0.229
A-427	0.755	0.806	0.836	1.04	1.05	0.949	0.227	0.204	0.197
NCI-H650	0.935	0.967	0.952	0.816	0.814	0.864	0.704	0.733	0.73
NCI-H2347	0.283	0.292	0.264	1.11	1.16	0.778	0.615	0.523	0.591
EMC-BAC-2	1.01	0.993	0.875	1.11	1.13	1.12	0.296	0.266	0.302

Cell Line	relative viability (Linifanib + Trametinib; first compound 0.03162 µM)	relative viability (Linifanib + Trametinib; first compound 0.1 µM)	relative viability (Linifanib + Trametinib; first compound 0.3162 µM)	relative viability (Linifanib + Bortezomib; first compound 0.03162 µM)	relative viability (Linifanib + Bortezomib; first compound 0.1 µM)	relative viability (Linifanib + Bortezomib; first compound 0.3162 µM)	relative viability (Linifanib + Tozasertib; first compound 0.03162 µM)	relative viability (Linifanib + Tozasertib; first compound 0.1 µM)	relative viability (Linifanib + Tozasertib; first compound 0.3162 µM)
EKVX	0.381	0.411	0.392	0.863	1.03	0.698	0.477	0.448	0.338
NCI-H1651	0.896	0.787	0.787	0.967	0.934	0.895	0.618	0.832	0.695
LCLC-97TM1	0.2	0.179	0.16	0.866	0.868	0.56	0.205	0.231	0.189
SW 1573	0.505	0.674	0.563	0.972	1.04	1.08	0.195	0.193	0.189
SK-MES-1	0.528	0.568	0.507				0.882	1.06	0.819
NCI-H2009	0.266	0.343	0.274	1.25	1.05	0.963	0.718	0.834	0.71
COR-L23	0.666	0.689	0.578	1.12	1.17	0.831	0.181	0.228	0.141
201T	0.746	0.736	0.758	1.05	1.09	1.08	0.971	0.965	0.942
NCI-H2228	0.511	0.719	0.587	0.815	1.32	0.959	0.206	0.233	0.295
NCI-H322M	0.549	0.345	0.506	1.24	1.21	1.27	0.5	0.515	0.407
HARA	0.813	0.809	0.591	1.14	1.11	1.06	0.094	0.117	0.0893
CAL-12T	0.338	0.463	0.357	1.06	1.01	0.8	0.333	0.348	0.355
NCI-H2087	0.188	0.235	0.195	1.06	0.608	0.849	0.295	0.254	0.267
NCI-H727	0.396	0.418	0.388	0.934	0.922	0.702	0.535	0.659	0.529
H3255	0.629	0.698	0.554	0.809	0.781	0.728	0.767	0.662	0.601
LXF-289	0.749	0.695	0.624	1.04	1.01	0.952	0.185	0.173	0.172
NCI-H441	0.457	0.518	0.409	0.496	0.43	0.371	0.48	0.654	0.678
